Experimental data published in US20140100138A1, “MECHANICAL STRESS RESPONSE ANALYSIS OF CELLS AND TISSUES” (The Regents of The University of California, priority 2012, published 2014).

How the values were obtained:
[1] = system: HUVECs; test: 96-well plate screen of microtsunami-generated Ca2+ signaling, percentage of cells signaling 100-150 μm from μCB center; type: cell-based, human; conditions: 96-well screen; for effect on microtsunami-induced Ca2+ signaling in Ca2+ containing media: HHBSS+ with 2 g/L D-glucose, FIG. 9D columns 8-10; for effect on microtsunami-induced Ca2+ signaling in Ca2+ free media: HHBSS- with 3 mM EGTA, 2-APB 10-100 μM, PP2 10 μM, Verapamil 50 nM, FIG. 9D columns 1-5
Protocol: 96 well plates (Invitro-Scientific) were coated with fibronectin and P4 HUVECs were plated in each well. […] DMSO was also added as a control corresponding to the highest amount added from solution of the drugs, 0.3%. The first seven columns contained the previously used HHBSS- with 3 mM EGTA and the last five columns contained HHBSS+ supplemented with 2 g/L D-glucose.
The experiments were performed in a 96-well plate where twelve conditions, each with eight replicates, were tested for their potential effect on μTsunami generated Ca^2+ signaling.

[2] = 2-APB 10 μM, 30 μM or 100 μM; cited from earlier work
[3] = system: HUVECs; test: Cell lysate / ATP control experiments for Ca2+ signaling with and without microtsunami exposure; type: cell-based, human
Protocol: HUVECs grown in a tissue culture flask at full confluency were resuspended in standard HBSS- at a concentration of 1.5×10^7 cells/mL. Cell lysate solution was prepared by subjecting this solution to repeated freeze-thaw cycles at −80° C. and then sonicated on ice for 30 s.
Exposure to cell lysate alone was confirmed as not responsible for the observed Ca^2+ dynamics. Cells were dosed with a solution of cell lysate immediately following microtsunami exposure. In addition, cells were exposed to cell lysate alone. As positive controls, the Ca^2+ signaling response produced by ATP was measured with and without microtsunami exposure. As a negative control, Ca^2+ signaling without cell lysate, ATP, or microtsunami exposure was measured.
Probability of Ca2+ signaling produced by microtsunami exposure is plotted as a function of distance from the site of laser microbeam irradiation. Two control experiments were conducted to test whether the observed Ca^2+ was due to cellular exposure to cell lysate produced by the microtsunami. In the first, 150 μL of cell lysate was administered following a Ca^2+ signaling event generated by microtsunami exposure. […] Both experiments elicited an average signaling probability of <1%. […] The reduced ATP signaling probability following microtsunami exposure was due to cell lysis/necrosis produced by the microtsunami.

SMILES	effect on microtsunami-induced Ca2+ signaling in Ca2+ containing media [1]	effect on microtsunami-induced Ca2+ signaling in Ca2+ free media [1]	inhibition of Ca2+ release following stimulation using a bolus of ATP [2]	average Ca2+ signaling probability, substance given following microtsunami exposure ([3]; administered after microtsunami, ATP 50 μM, cell lysate 150 μL) [%]	average Ca2+ signaling probability, substance given without microtsunami exposure ([3]; no microtsunami, ATP 50 μM) [%]	Ca2+ signaling response (in words) ([3]; with and without microtsunami exposure)
CC(C)(C)n1nc(-c2ccc(Cl)cc2)c2c(N)ncnc21 [PP2]	significant microtsunami-induced mechanosignaling was observed	neither PP2 nor Verapamil (FIG. 9D, columns 4, 5) affected Ca^2+ signaling	–	–	–	–
NCCOB(c1ccccc1)c1ccccc1 [2-APB, 2-Aminoethoxydiphenylborate]	suppression of signaling	dose-dependent inhibitory effect	dose-dependent inhibition of Ca^2+ release	–	–	–
Nc1ncnc2c1ncn2[C@@H]1O[C@H](COP(=O)(O)OP(=O)(O)OP(=O)(O)O)[C@@H](O)[C@H]1O [ATP]	–	–	–	60	> 90	strong Ca^2+ signaling response
